For 47 molecules, photoluminescence quantum yield results are on record in the Deep4Chem optical property database.

The nature of the data set: photoluminescence quantum yield (fraction); solvent given as SMILES.
[1] abbreviates: in O=P(c1ccccc1)(c1ccccc1)c1ccccc1Oc1ccccc1P(=O)(c1ccccc1)c1ccccc1.

As to `c1ccc(-c2nnc(-c3cc(-c4nnc(-c5ccccc5)o4)c(-n4c5ccccc5c5ccccc54)cc3-n3c4ccccc4c4ccccc43)o2)cc1`, the photoluminescence quantum yield reads like this: (in Cc1ccccc1) 0.101; under setting [1], 0.581.

Turning to `CCOC(=O)c1ccc(C2=Cc3cc4ccccc4cc3P2(=O)c2ccccc2)cc1` (configuration not stated), the photoluminescence quantum yield (in ClCCl) amounted to 0.54.

Consider `Cc1ccc(-c2ccc(/C=C/c3ccc(C#N)cc3)cn2)nc1`, for which, under “in CC#N”, the photoluminescence quantum yield came out at 0.27.

As to `CCCCCOc1cc2oc(=O)c3c4ccc(N)cc4c4ccc5cccc6c(c1)c2c3c4c56`, the photoluminescence quantum yield (in C1CCOC1) was determined as 0.486.

Regarding `CC1=[N+]2C(=C(NC(C)c3ccccc3)c3ccc(C)n3[B-]2(F)F)C=C1c1cc2n(c1)[B-](F)(F)[N+]1=CC=CC1=C2c1c(C)cc(C)cc1C` (configuration not stated), the photoluminescence quantum yield reads like this: (in C1CCCCC1) 0.31; (in CCOC(C)=O) 0.05.

Under setting [1], `c1ccc(-c2cc(-c3ccc(N4c5ccccc5C(c5ccccc5)(c5ccccc5)c5ccccc54)cn3)nc(-c3ccccc3)n2)cc1` returned a photoluminescence quantum yield of 0.86.

`CC(C)(C)NC(=O)c1ccc(-c2cc3ccccc3s2)c2ccc3c4ccccc4c4ccccc4c3c12` showed a photoluminescence quantum yield (in ClCCl) of 0.27.

In the case of `CCCCCCCCc1ccc(-c2c3cc(-c4cc(CCCCCCCC)c(-c5ccc(-c6sc(/C=C7\SC(=S)N(CC)C7=O)cc6CCCCCCCC)s5)s4)sc3c(-c3ccc(CCCCCCCC)s3)c3cc(-c4cc(CCCCCCCC)c(-c5ccc(-c6sc(/C=C7\SC(=S)N(CC)C7=O)cc6CCCCCCCC)s5)s4)sc23)s1`, the photoluminescence quantum yield turned out to be 0.048 (in C1CCOC1) and 0.027 (in ClC(Cl)Cl).

For `O=C(Cc1ccccc1)OCc1ccc2c3cccc4cccc(c5cccc1c52)c43`, under “in CCO”, the photoluminescence quantum yield was found to be 0.92.

For the molecule `CCCCC(CC)CN1C(=O)c2cccc3c(C#Cc4ccc(N(c5ccc(C#Cc6ccc7c8c(cccc68)C(=O)N(CC(CC)CCCC)C7=O)cc5)c5ccc(C#Cc6ccc7c8c(cccc68)C(=O)N(CC(CC)CCCC)C7=O)cc5)cc4)ccc(c23)C1=O` (configuration not stated), the photoluminescence quantum yield runs as follows: (in C1CCCCC1) 0.064; (in C1CCOC1) 0.027; (in CC#N) 0.111; (in Cc1ccccc1) 0.053; (in ClC(Cl)Cl) 0.041.

`COc1ccc(-c2c3ccccc3c(C#Cc3ccccc3)c3ccccc23)cc1`: under “in ClCCl”, the photoluminescence quantum yield turned out to be 0.51.

Under “in ClC(Cl)Cl”, `c1ccc(N(c2ccccc2)c2ccc(-c3ccc(-c4ccc(-c5ccc(-c6ccc(N(c7ccccc7)c7ccccc7)cc6)s5)c5nsnc45)s3)cc2)cc1` displayed a photoluminescence quantum yield of 0.23.

With `F[B-]1(F)OC(c2ccc3c(c2)Cc2ccccc2-3)=CC(c2ccccc2)=[O+]1`, the photoluminescence quantum yield (in CC#N) was 0.96.

Take `Nc1ccc2c(c1)-c1ccccc1C2=O`: the photoluminescence quantum yield came out at 0.006 (in C1CCCCC1), 0.043 (in CC#N), 0.0033 (in CCO) and 0.13 (in c1ccccc1).

Consider `CCCCn1c2ccccc2c2ccc(C#Cc3ccc4ccc5cccc6ccc3c4c56)cc21`, for which the photoluminescence quantum yield (in ClCCl) was 0.62.

The molecule `c1cc2cc(c1)c1cccc(c1)c1cccc(c1)c1cccc(c1)c1cccc(c1)c1cccc2c1` had a photoluminescence quantum yield (in ClC(Cl)Cl) of 0.06.

`C[n+]1ccc(/C=C/c2cc[n+](C)cc2)cc1`: where the note is “in CC#N”, the photoluminescence quantum yield is 0.015.

For the molecule `NCCCCCCCCCCCCN1C(=O)c2ccc3c4ccc5c6c(ccc(c7ccc(c2c37)C1=O)c64)C(=O)N(c1ccc(O)cc1)C5=O`, under “in CN(C)C=O”, the photoluminescence quantum yield was 0.91.

In turn, `CC(C)(C)c1cc(-n2c(-c3ccc(C(=C(c4ccccc4)c4ccccc4)c4ccccc4)cc3)cc3c2cc(-c2ccc(C(=C(c4ccccc4)c4ccccc4)c4ccccc4)cc2)n3-c2cc(C(C)(C)C)cc(C(C)(C)C)c2)cc(C(C)(C)C)c1` showed a photoluminescence quantum yield (in ClCCl) of 0.0085.

Consider `COc1ccc(-c2nc3c(ccc4ccccc43)oc2=O)cc1`, for which the photoluminescence quantum yield (in c1ccccc1) was found to be 0.57.

Under “in CC#N”, `F[B-]1(F)n2c(c(-c3cccs3)c3c2-c2ccccc2CC3)C=C2C(c3cccs3)=C3CCc4ccccc4C3=[N+]21` had a photoluminescence quantum yield of 0.84.

`C[n+]1ccc(/C=C/c2ccc(N(c3ccccc3)c3ccc(/C=C/c4cc[n+](C)cc4)cc3)cc2)cc1` gave a photoluminescence quantum yield (in ClCCl) of 0.64, a photoluminescence quantum yield (in O) of 0.08 and a photoluminescence quantum yield (in OCC(O)CO) of 0.11.

`CC(C)(C)c1ccc2oc3nc4oc5ccc(N6c7ccccc7Oc7ccccc76)cc5c4cc3c2c1`: the photoluminescence quantum yield (in ClC(Cl)Cl) came out at 0.057.

Take `N#Cc1cc(C#N)c(-n2c3ccccc3c3c(-c4cccc5c4c4ccccc4n5-c4cc(-n5c6ccccc6c6ccccc65)c(C#N)cc4C#N)cccc32)cc1-n1c2ccccc2c2ccccc21`: the photoluminescence quantum yield under setting [1] turned out to be 0.61.

Consider `COc1ccc(C2=C(c3ccc(OC)cc3)C(C)(C)c3ccccc32)cc1`, for which, under “in C1CCCCC1”, the photoluminescence quantum yield stood at 0.09.

In turn, `CCN(CC)c1ccc(C2=C3C(C)=CC(/C=C/c4ccc(OCC(=O)OC)cc4)=[N+]3[B-](F)(F)n3c(C)cc(C)c32)cc1` showed a photoluminescence quantum yield (in CO) of 0.87.

With `N#Cc1ccc(C#Cc2ccc3ccc4ccc(C#Cc5ccc(C#N)cc5)c5ccc2c3c45)cc1`, the photoluminescence quantum yield was 0.8 (in CCCCCC), 0.734 (in CO) and 0.732 (in ClCCl).

With `Cc1ccc(/C2=c3\cc/c(o3)=C(\c3ccc(C)cc3)c3ccc([nH]3)-c3ccc4n3[P-](=O)(=O)[N+]3=C(C=CC3=C4c3ccco3)c3ccc2[nH]3)cc1`, the photoluminescence quantum yield (in ClC(Cl)Cl) was found to be 0.09.

Where the note is “in ClC(Cl)Cl”, `F[B-]1(F)OC(c2ccc(Br)cc2)=Cc2c3ccccc3cc[n+]21` returned a photoluminescence quantum yield of 0.049.

Under “in C1CCCCC1”, `COCCC1(CCOC)c2cc(-c3ccc(OC)cc3)ccc2-c2ccc(-c3ccc(OC)cc3)cc21` gave a photoluminescence quantum yield of 0.61.

Where the note is “in ClC(Cl)Cl”, `CC(C)(C)c1ccc2oc3nc4oc5ccc(N6c7ccccc7Sc7ccccc76)cc5c4cc3c2c1` yielded a photoluminescence quantum yield of 0.016.

For the molecule `C=CC1CN2CCC1CC2[C@@H](OCc1ccccc1)c1ccnc2ccc(O)cc12` (some centres not stated), the photoluminescence quantum yield was determined as 0.12 (in C1CCOC1); 0.016 (in CC#N); 0.021 (in CCCC#N); 0.06 (in Cc1ccccc1); 0.035 (in ClCCl).

`Cc1cc(C)c(B(c2cc(-c3ccccc3)sc2-c2sc(-c3ccccc3)cc2P(=O)(c2ccccc2)c2ccccc2)c2c(C)cc(C)cc2C)c(C)c1` displayed a photoluminescence quantum yield (in CO) of 0.75.

Consider `O=P1(c2ccccc2)C(c2cc(C(F)(F)F)cc(C(F)(F)F)c2)=Cc2c3ccc4cccc5ccc(c6cc(-c7ccccc7)n1c26)c3c45` (configuration not stated), for which the photoluminescence quantum yield is, setting by setting: (in C1CCCCC1) 0.54; (in C1CCOC1) 0.61; (in C1COCCO1) 0.62; (in CC#N) 0.63; (in CC(C)=O) 0.64; (in CO) 0.65. Besides, the photoluminescence quantum yield reads like this: (in Cc1ccccc1) 0.66; (in ClC(Cl)Cl) 0.6; (in ClCCl) 0.61.

Take `COc1ccc(C2=C/C(=C\c3ccccc3)C(=O)O2)cc1OC`: under “in C1COCCO1”, the photoluminescence quantum yield is 0.004.

The molecule `CC(=C(C#Cc1ccccc1)C#Cc1ccccc1)c1ccc(C(C)=C(C#Cc2ccccc2)C#Cc2ccccc2)cc1` came in with a photoluminescence quantum yield (in ClC(Cl)Cl) of 0.03.

For the molecule `c1cc2oc3cccc4oc5cccc6oc(c1)c2[c+](c34)c65`, the photoluminescence quantum yield (in CC#N) came to 0.11.

As for `Cc1cc(/N=C/c2cc(S(=O)(=O)[O][Na])ccc2O)c(/N=C/c2cc(S(=O)(=O)[O][Na])ccc2O)cc1C`, for the setting “in O”, the photoluminescence quantum yield worked out at 0.56.

Molecule `CC(C)[Si](C#Cc1c2ccc(C(C)(C)C)cc2c(C#Cc2c3ccc(C(C)(C)C)cc3c(C#Cc3c4ccc(C(C)(C)C)cc4c(C#C[Si](C(C)C)(C(C)C)C(C)C)c4ccc(C(C)(C)C)cc34)c3ccc(C(C)(C)C)cc23)c2ccc(C(C)(C)C)cc12)(C(C)C)C(C)C` came in with a photoluminescence quantum yield (in Cc1ccccc1) of 0.022.

Turning to `CC(C)(C)NC(=O)c1c([Si](C)(C)C)cc2ccc3cccc4ccc1c2c34`, the photoluminescence quantum yield (in ClC(Cl)Cl) amounted to 0.151.

As for `Cc1cnc(NC(=O)C2=C(O)c3ccccc3S(=O)(=O)N2C)s1`, the photoluminescence quantum yield is 0.0133 (in C1COCCO1); 0.0147 (in CC#N); 0.0231 (in CCCCO); 0.0164 (in CCCO); 0.0106 (in CCO); 0.0113 (in CCOC(C)=O). Where the note is “in CO”, the photoluminescence quantum yield stood at 0.00754.

`COCCOCCOc1cc(C=O)c(OCCOCCOC)cc1C=O`: the photoluminescence quantum yield is, setting by setting: (in CC(C)(C)O) 0.12; (in CC(C)CO) 0.09; (in CC(C)O) 0.08; (in CCCCO) 0.14; (in CCCO) 0.15; (in CCO) 0.15. Besides, the photoluminescence quantum yield by setting is: (in CN(C)C=O) 0.05; (in CNC=O) 0.03; (in CO) 0.22; (in NC=O) 0.26; (in O) 0.55.

For `CC1(C)c2cccc(-c3nc(-c4ccccc4)nc(-c4ccccc4)n3)c2Oc2c(-n3c4ccccc4c4ccccc43)cccc21`, the photoluminescence quantum yield (in Cc1ccccc1) worked out at 0.059.

The molecule `Nc1ccc2c3cccc4cccc(c5cccc1c52)c43` had a photoluminescence quantum yield (in C1CCCCC1) of 0.55; a photoluminescence quantum yield (in C1CCOC1) of 0.58; a photoluminescence quantum yield (in C1COCCO1) of 0.28; a photoluminescence quantum yield (in CC(C)=O) of 0.5; a photoluminescence quantum yield (in CCCCOCCCC) of 0.24; a photoluminescence quantum yield (in CCOC(C)=O) of 0.2. The photoluminescence quantum yield stood at 0.56 (in CN(C)C=O), 0.45 (in CO) and 0.47 (in ClCCl).

The molecule `CCCCCCN1C(=O)c2cccc3c(-c4ccc(-c5cc(-c6cccc7ccccc67)nn5-c5ccccc5)s4)ccc(c23)C1=O` registered a photoluminescence quantum yield (in ClCCl) of 0.16.

Under “in C1CCOC1”, `COc1cc2c(cc1-c1ccc([N+](=O)[O-])cc1)Cc1c3c(c4c(c1-2)-c1cc(OC)c(-c2ccc([N+](=O)[O-])cc2)cc1C4)C(=O)N(CCC(C)C)C3=O` had a photoluminescence quantum yield of 0.11.

The molecule `Cc1ccc(-c2ccc(/C=C/c3ccc(F)cc3)cn2)nc1` showed a photoluminescence quantum yield (in CC#N) of 0.69.
